“Also recorded” adds a separate entry of the source.
Test system: diet-induced obesity
Assay: Diet-induced obesity (DIO) model
Type: in vivo, Sprague-Dawley rats
Description: Male Sprague-Dawley rats of age 2 months were placed on a high fat diet (Research Diets Inc., product code D12492, 60% kcal % fat) for 3 months. A group of age-matched rats were fed normal lab chow (LabDiet 5001, ˜13% kcal % fat), these animals served as controls for DIO group.
At age 4 months, and 2 months into placement of high fat diet, all rats were allocated into 3 groups of N=7 based on equivalent body weights and food intakes. Body weights and food and water intakes were measured at approximately the same time each day. On treatment days, dosing was at approximately 2 hours before lights off.
The DIO control group was treated with vehicle (oral, 10 mL/kg dose volume; 0.5% Pluronic F68 and 0.5% PVP K29/32 in water) on each weekday. The Compound 21.5 mg/kg group was orally treated on each weekday throughout the treatment phase (dose 10 mL/kg dose volume; 0.5% Pluronic F68 and 0.5% PVP K29/32 in water). The Compound 2 3 mg/kg group (10 mL/kg dose volume; 0.5% Pluronic F68 and 0.5% PVP K29/32 in water) was orally treated initially once daily on each weekday for week 1, then twice weekly (Monday, Wednesday) for week 2. During treatment weeks 3 and 4, Compound 2 3 mg/kg treatment continued twice weekly, except dosing was on Monday and Thursday.
Prior to the treatment phase, 3 days baseline data were collected. The treatment phase was for 4 weeks. A washout phase of 10 days was also included.
Compound 2 was supplied in powder form. […] Active percentage was adjusted using BEW of 1.437 and prepared by dissolving into 0.5% w/v Pluronic F-68 and 0.5% w/v PVP K-29-32 vehicle solution. The vehicle solution was prepared on a weekly basis while Compound 2 was prepared fresh every 2 days and stored at +4° C. Animals were dosed at a volume of 10 mL/kg. Individual doses were calculated based on the most recent body weights to provide the proper mg/kg/day dosage.

O=C(/C=C\n1cnc(-c2cc(C(F)(F)F)cc(C(F)(F)F)c2)n1)NNC(=O)CN1CCOCC1 [Compound 2, (Z)-3-(3-(3,5-bis(trifluoromethyl)phenyl)-1H-1,2,4-triazol-1-yl)-N′-(2-morpholinoacetyl)acrylohydrazide]
daily food intake and body weight compared to DIO control group (1.5-3 mg/kg oral, 28 day treatment period): dose-related decrease in daily food intake and body weight; also recorded: decreases daily food intake in a dose dependent manner | body weight gain (percentage of body weight change from study day 3) compared to DIO controls (1.5 and 3 mg/kg, treatment days 7 (study day 10) and 14 (study day 17)): significant reduction in weight gain | body weight over the washout phase (washout phase, both Compound 2 groups): remained lower than DIO controls

Reference: US9096543B2, “Nuclear transport modulators and uses thereof” (Karyopharm Therapeutics Inc., priority 2012, dated 2015)
